# Test results reported in patent US20260193254A1, “2-OXOQUINAZOLINE CRYSTALLINE FORMS” (IDEAYA Biosciences, Inc., priority 2022, published 2026).
# What was measured:
# Type in all cases: physicochemical
# [1] = Variable humidity and temperature XRPD experiments
# [2] = Hygroscopicity: water sorption and desorption by dynamic vapor sorption (DVS); conditions: for form change after the DVS test: XRPD after DVS; for humidity at which water is absorbed again / water content restored (conversion back to the hydrate): DVS and variable humidity XRPD
# Description: In some embodiments, the crystalline form described herein is further characterized by is further characterized by a dynamic vapor sorption (DVS) profile. In some embodiments, a DVS is recorded according to the method as described herein with a cycle of 40-0-95-0-40% RH at 25° C.
# Water sorption and desorption behaviors of Form A, Form C, Form D, and Form T were investigated by DVS at 25° C. with a cycle of 40-0-95-0-40% RH. Dm/dt was 0.002. Minimum equilibration time was 60 min. Maximum equilibration time was 360 min. XRPD was measured after DVS test to determine potential form change.
# [3] = Variable humidity and temperature XRPD experiments; conditions: for temperature above which the form starts to lose water: based on DSC results; for dehydration product (form obtained on loss of water): low humidity or heating above the dehydration temperature
# Description: Based on DVS and DSC results of Form C, Form C starts to loss water when humidity is below 30% or when temperature is higher than about 44° C. […] In order to determine identity of potential form changes after the dehydration and upon the solid-solid transition, variable humidity and variable temperature XRPD techniques were applied. XRPD patterns of the sample were measured online under 25° C./ambient environment (initial)-120° C./N2 protection-25° C./ambient environment-25° C./80% RH (40 min)-25° C./0% RH (15 h), and 25° C./ambient environment (initial)-250° C./N2 protection-25° C./ambient environment. […] Form L coverts back to Form C after exposure to 25° C./80% RH for 40 min.
# Based on DVS and DSC results of Form D, Form D starts to loss water when humidity is below 10% or when temperature is higher than 46° C. In order to determine identity of the dehydration product, variable humidity and variable temperature XRPD techniques were applied. XRPD patterns of the sample were measured online with a temperature cycle of 25° C./ambient environment (initial)-130° C./N2 protection (10 min)-25° C./N2 protection-25° C./ambient environment (3h) and two water sorption and desorption cycles of 50% RH (initial)-90% RH (3h)-60% RH (2h)-40% RH (2h)-20% RH (3h)-10% RH (3h)-0% RH (6h)-10% RH (3h)-20% RH (3h)-50% RH at 25° C. […] (higher than dehydration temperature). Form S converts back to Form D after exposure to ambient condition for 3 h.
# In order to investigate potential form change of Form A upon heating, variable temperature XRPD technique was applied. XRPD patterns of the sample were measured online with a temperature cycle of 25° C. (initial)-50° C./N2 protection-70° C./N2 protection-250° C./N2 protection-25° C./N2 protection-25° C./ambient condition (3h). […] Form A converts to Form U when temperature is 250° C., and Form U converts to Form T after cooling to 25° C.
# [4] = Equilibrium solubility in FeSSIF and FaSSIF; conditions: for XRPD of solid after solubility test / final pH / Solubility / impurity in solubility sample: 24 hours; for Solubility / solubility at 24 h: target concentration 1 mg/mL, HPLC method 1 or 2 (footnote); for impurity in solubility sample: no unit printed for impurity (column head mg/mL); for solubility at 24 h: 37 °C, thermodynamic from solid
# Description: (§1) Solid part and liquid part were separated by filtration. Solubility was measured by HPLC. Solid part (wet cake) was investigated by XRPD.
# [5] = Grinding simulation experiments - wet grinding (granulation)
# Description: Water or ethanol was added drop wise to about 20 mg of Form A, Form D, or Form T until solid was wetted sufficiently. Vortex was applied between each addition. Samples were dried under ambient condition for 10 min. Potential form transition and degree of crystallinity were evaluated by XRPD.
# [6] = Bulk stability of crystalline forms; conditions: for Purity, Bulk (HPLC): Solid state
# Description: (§2) Solids obtained after bulk stability study were characterized by XRPD and HPLC.
# [7] = Grinding simulation experiments - dry grinding
# Description: About 20 mg of Form A, Form D, and Form T were ground manually with a mortar and a pestle for 5 min or 1 min. Potential from transition and degree of crystallinity were evaluated by XRPD.
# [8] = Bulk stability of crystalline forms; design: key: Color A: All No change of color; conditions: Solid state
# Description: as §2
# [9] = Equilibrium solubility in SGF (pH 2.0), 0.1 N HCl (pH 1.2) and phosphate buffer (pH 8.0); conditions: solid from solubility study with Form A in 0.1 N HCl solution
# Description: as §1
# [10] = 25° C./92% RH, open container, 1 week
# [11] = 25° C./92% RH, open container, 2 weeks
# [12] = 40° C./75% RH, open container, 1 week
# [13] = 40° C./75% RH, open container, 2 weeks
# [14] = 60° C., tight container, 1 week
# [15] = 60° C., tight container, 2 weeks
compound,measurement,setting,value
"Nc1nc(=O)n(-c2ccccc2Cl)c2nc(C(F)(F)F)ccc12 [Form C, 4-Amino-1-(2-chlorophenyl)-7-(trifluoromethyl)pyrido[2,3-d]pyrimidin-2(1H)-one]",XRPD (XRPD method 2),[1]; VT1 25° C./60% RH (initial),Form C
same,XRPD (XRPD method 2),[1]; VT7 250° C./60% RH (10 min),Solid state Form V
same,XRPD (XRPD method 2),[1]; VT8 25° C./60% RH (final),Solid state Form V
same,humidity below which the form starts to lose water,[2]; 25° C.,below 30 % RH
same,form change after the DVS test,[2],A mixture of Form L and Form C was obtained
same,XRPD (XRPD method 2),[3]; VT2 120° C./60% RH (10 min),Form L
same,XRPD (XRPD method 2),[3]; VT4 25° C./80% RH (40 min),Form C
same,XRPD (XRPD method 2),[3]; VT6 25° C./60% RH (initial),Form C
same,temperature above which the form starts to lose water,[3],higher than 44 °C
same,dehydration product (form obtained on loss of water),[3],Form L
same,XRPD of solid after solubility test,"[4]; FaSSIF, pH 6.5, 37° C.",Form C
same,final pH,"[4]; FaSSIF, pH 6.5, 37° C.",6.6
same,Solubility,"[4]; FaSSIF, pH 6.5, 37° C.",60 µg/mL
same,impurity in solubility sample,"[4]; FaSSIF, pH 6.5, 37° C.",no impurity
same,XRPD of solid after solubility test,"[4]; FeSSIF, pH 5.0, 37° C.",Form C
same,final pH,"[4]; FeSSIF, pH 5.0, 37° C.",5.2
same,Solubility,"[4]; FeSSIF, pH 5.0, 37° C.",170 µg/mL
same,impurity in solubility sample,"[4]; FeSSIF, pH 5.0, 37° C.",no impurity
"Nc1nc(=O)n(-c2ccccc2Cl)c2nc(C(F)(F)F)ccc12 [Form D, 4-Amino-1-(2-chlorophenyl)-7-(trifluoromethyl)pyrido[2,3-d]pyrimidin-2(1H)-one]",XRPD (XRPD method 2),[1]; VRH1 21° C./50% RH (initial),Form D
same,XRPD (XRPD method 2),[1]; VRH2 21° C./90% RH (3 h),Form D
same,XRPD (XRPD method 2),[1]; VRH3 21° C./60% RH (2 h),Form D
same,XRPD (XRPD method 2),[1]; VRH4 21° C./40% RH (2 h),Form D
same,XRPD (XRPD method 2),"[1]; VRH5 21° C./20% RH (3 h), desorption",Form D
same,XRPD (XRPD method 2),"[1]; VRH6 21° C./10% RH (3 h), desorption",Form S
same,XRPD (XRPD method 2),[1]; VRH7 21° C./0% RH (6 h),Form S
same,XRPD (XRPD method 2),"[1]; VRH8 21° C./10% RH (3 h), after 0% RH",Form S
same,XRPD (XRPD method 2),"[1]; VRH9 21° C./20% RH (3 h), after 0% RH",Form S
same,XRPD (XRPD method 2),[1]; VRH10 21° C./50% RH (final),Form D
same,XRPD (XRPD method 2),[1]; VT9 25° C./55% RH (initial),Form D
same,XRPD (XRPD method 2),[1]; VT10 130° C./55% RH (10 min),Form S
same,XRPD (XRPD method 2),[1]; VT11 25° C./N2 protection (10 min),Form S
same,XRPD (XRPD method 2),[1]; VT12 25° C./55% RH (3 h),Form D
same,XRPD after wet grinding,[5]; Ethanol,substantially amorphous
same,XRPD after wet grinding,[5]; Water,No form change
same,form change after granulation with water,"[5]; wet grinding, XRPD",no form change
same,tolerance to granulation with ethanol or water,"[5]; wet grinding, XRPD",poor tolerance
same,tolerance to granulation with water,"[5]; wet grinding, XRPD",good tolerance
same,humidity at which water is absorbed again / water content restored (conversion back to the hydrate),[2]; 25° C.,higher than 20 % RH
same,hygroscopicity,"[2]; DVS at 25° C., cycle 40-0-95-0-40% RH",slightly hygroscopic
same,water uptake,"[2]; DVS, from 40% to 95% RH, 25° C.",about 0.9%
same,form change after the DVS test,[2],No form change
same,"Purity, Bulk (HPLC)",[6]; [10],98.0%
same,"Purity, Bulk (HPLC)",[6]; [11],98.0%
same,"Purity, Bulk (HPLC)",[6]; [12],98.1%
same,"Purity, Bulk (HPLC)",[6]; [13],98.2%
same,"Purity, Bulk (HPLC)",[6]; [14],98.1%
same,"Purity, Bulk (HPLC)",[6]; [15],97.8%
same,Initial purity,"[6]; before stress, HPLC",98.0%
same,chemical stability and physical stability (bulk stability),"[6]; stressed under 25° C./92 RH, 40% C/75% RH and 60° C., XRPD and HPLC",good chemical stability and physical stability
same,XRPD after dry grinding,[7]; Dry grinding for 1 min,substantially amorphous
same,XRPD after dry grinding,[7]; Dry grinding for 5 min,substantially amorphous
same,tolerance to dry grinding,"[7]; ground manually with mortar and pestle, 5 min or 1 min, XRPD",poor tolerance
same,XRPD (XRPD method 2),[3]; VT13 25° C./55% RH (final),Form D
same,temperature above which the form starts to lose water,[3],higher than 46 °C
same,dehydration product (form obtained on loss of water),[3],Form S
same,Color,[8]; [10],A
same,Color,[8]; [11],A
same,Color,[8]; [12],A
same,Color,[8]; [13],A
same,Color,[8]; [14],A
same,Color,[8]; [15],A
same,XRPD of solid after solubility test,"[4]; FaSSIF, pH 6.5, 37° C.",Form D
same,final pH,"[4]; FaSSIF, pH 6.5, 37° C.",6.6
same,Solubility,"[4]; FaSSIF, pH 6.5, 37° C.",90 µg/mL
same,impurity in solubility sample,"[4]; FaSSIF, pH 6.5, 37° C.",no impurity
same,XRPD of solid after solubility test,"[4]; FeSSIF, pH 5.0, 37° C.",Form D
same,final pH,"[4]; FeSSIF, pH 5.0, 37° C.",5.2
same,Solubility,"[4]; FeSSIF, pH 5.0, 37° C.",210 µg/mL
same,impurity in solubility sample,"[4]; FeSSIF, pH 5.0, 37° C.",no impurity
"Nc1nc(=O)n(-c2ccccc2Cl)c2nc(C(F)(F)F)ccc12 [Form E, 4-Amino-1-(2-chlorophenyl)-7-(trifluoromethyl)pyrido[2,3-d]pyrimidin-2(1H)-one]",solubility at 24 h,"[4]; pH 5, fessif, FeSSIF, pH 5.0, 37° C.",140 µg/mL
same,solubility at 24 h,"[4]; pH 6.5, fassif, FaSSIF, pH 6.5, 37° C.",60 µg/mL
same,XRPD of solid after solubility test,"[4]; FaSSIF, pH 6.5, 37° C.",Form E
same,final pH,"[4]; FaSSIF, pH 6.5, 37° C.",6.6
same,XRPD of solid after solubility test,"[4]; FeSSIF, pH 5.0, 37° C.",Form E
same,final pH,"[4]; FeSSIF, pH 5.0, 37° C.",5.2
"Nc1nc(=O)n(-c2ccccc2Cl)c2nc(C(F)(F)F)ccc12 [Form F, 4-Amino-1-(2-chlorophenyl)-7-(trifluoromethyl)pyrido[2,3-d]pyrimidin-2(1H)-one]",XRPD of solid after solubility test,"[4]; FaSSIF, pH 6.5, 37° C.",Form F
same,final pH,"[4]; FaSSIF, pH 6.5, 37° C.",6.6
same,XRPD of solid after solubility test,"[4]; FeSSIF, pH 5.0, 37° C.",Form F
same,final pH,"[4]; FeSSIF, pH 5.0, 37° C.",5.0
same,Solubility,"[4]; FeSSIF, pH 5.0, 37° C.",240 µg/mL
"Nc1nc(=O)n(-c2ccccc2Cl)c2nc(C(F)(F)F)ccc12 [Form L, 4-Amino-1-(2-chlorophenyl)-7-(trifluoromethyl)pyrido[2,3-d]pyrimidin-2(1H)-one]",humidity at which water is absorbed again / water content restored (conversion back to the hydrate),[2]; 25° C.,≥ 80 % RH
same,form after exposure to 25° C./80% RH for 40 min,[3]; variable humidity XRPD,Form C
same,form obtained on heating to 250° C.,"[3]; variable temperature XRPD, N2 protection",solid state Form V
"Nc1nc(=O)n(-c2ccccc2Cl)c2nc(C(F)(F)F)ccc12 [Form R, 4-Amino-1-(2-chlorophenyl)-7-(trifluoromethyl)pyrido[2,3-d]pyrimidin-2(1H)-one]",impurity from HPLC result,[9],about 68.5%
"Nc1nc(=O)n(-c2ccccc2Cl)c2nc(C(F)(F)F)ccc12 [Form S, 4-Amino-1-(2-chlorophenyl)-7-(trifluoromethyl)pyrido[2,3-d]pyrimidin-2(1H)-one]",humidity at which water is absorbed again / water content restored (conversion back to the hydrate),[2]; 25° C.,higher than 20 % RH
same,form after exposure to ambient condition for 3 h,"[3]; XRPD, 25° C.",Form D
"Nc1nc(=O)n(-c2ccccc2Cl)c2nc(C(F)(F)F)ccc12 [Form U, 4-Amino-1-(2-chlorophenyl)-7-(trifluoromethyl)pyrido[2,3-d]pyrimidin-2(1H)-one]",form after cooling to 25° C.,[3]; after heating to 250° C.,Form T
